For 24 molecules, IC50 results are on record in patent publication US10112926B2 (priority 2014, dated 2018).

One experiment addresses PI 4-kinase beta (Homo sapiens (Human), UniProt Q9UBF8). The conditions noted are these: read-out: Assay D PI4Kβ IC50.
A further experiment deals with Vps34 (Homo sapiens (Human), UniProt Q8NEB9). The conditions noted are these: read-out: Assay C VPS34 IC50.
Another experiment addresses mTOR (Homo sapiens (Human), UniProt P42345). The conditions noted are these: read-out: Assay G mTOR IC50.

Each structure is given as a SMILES string. Structures can show the parent of a compound that is named as a salt. Some results are limits rather than exact numbers.

PI 4-kinase beta, sequence (Q9UBF8 whole entry): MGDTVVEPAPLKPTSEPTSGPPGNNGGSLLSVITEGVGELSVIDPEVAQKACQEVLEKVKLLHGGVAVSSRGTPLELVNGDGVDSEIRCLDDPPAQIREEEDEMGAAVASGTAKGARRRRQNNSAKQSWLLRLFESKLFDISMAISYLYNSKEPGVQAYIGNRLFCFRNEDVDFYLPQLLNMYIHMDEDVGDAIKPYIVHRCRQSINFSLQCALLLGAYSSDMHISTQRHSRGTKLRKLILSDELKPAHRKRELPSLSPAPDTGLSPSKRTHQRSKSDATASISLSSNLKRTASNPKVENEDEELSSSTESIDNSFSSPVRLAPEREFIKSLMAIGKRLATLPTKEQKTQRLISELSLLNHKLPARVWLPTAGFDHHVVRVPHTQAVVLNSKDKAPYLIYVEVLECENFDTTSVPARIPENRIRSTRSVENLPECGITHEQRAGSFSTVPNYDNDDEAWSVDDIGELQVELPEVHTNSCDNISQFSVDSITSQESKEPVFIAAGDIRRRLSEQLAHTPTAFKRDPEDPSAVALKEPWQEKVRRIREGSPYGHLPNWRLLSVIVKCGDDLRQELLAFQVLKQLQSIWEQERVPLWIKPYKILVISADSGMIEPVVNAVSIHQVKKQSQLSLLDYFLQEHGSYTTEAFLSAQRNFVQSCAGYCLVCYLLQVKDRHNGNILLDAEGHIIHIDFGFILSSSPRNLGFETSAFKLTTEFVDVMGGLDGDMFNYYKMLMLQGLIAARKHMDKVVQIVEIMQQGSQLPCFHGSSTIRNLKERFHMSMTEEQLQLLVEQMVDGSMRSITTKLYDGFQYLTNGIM
Vps34, sequence (Q8NEB9 whole entry): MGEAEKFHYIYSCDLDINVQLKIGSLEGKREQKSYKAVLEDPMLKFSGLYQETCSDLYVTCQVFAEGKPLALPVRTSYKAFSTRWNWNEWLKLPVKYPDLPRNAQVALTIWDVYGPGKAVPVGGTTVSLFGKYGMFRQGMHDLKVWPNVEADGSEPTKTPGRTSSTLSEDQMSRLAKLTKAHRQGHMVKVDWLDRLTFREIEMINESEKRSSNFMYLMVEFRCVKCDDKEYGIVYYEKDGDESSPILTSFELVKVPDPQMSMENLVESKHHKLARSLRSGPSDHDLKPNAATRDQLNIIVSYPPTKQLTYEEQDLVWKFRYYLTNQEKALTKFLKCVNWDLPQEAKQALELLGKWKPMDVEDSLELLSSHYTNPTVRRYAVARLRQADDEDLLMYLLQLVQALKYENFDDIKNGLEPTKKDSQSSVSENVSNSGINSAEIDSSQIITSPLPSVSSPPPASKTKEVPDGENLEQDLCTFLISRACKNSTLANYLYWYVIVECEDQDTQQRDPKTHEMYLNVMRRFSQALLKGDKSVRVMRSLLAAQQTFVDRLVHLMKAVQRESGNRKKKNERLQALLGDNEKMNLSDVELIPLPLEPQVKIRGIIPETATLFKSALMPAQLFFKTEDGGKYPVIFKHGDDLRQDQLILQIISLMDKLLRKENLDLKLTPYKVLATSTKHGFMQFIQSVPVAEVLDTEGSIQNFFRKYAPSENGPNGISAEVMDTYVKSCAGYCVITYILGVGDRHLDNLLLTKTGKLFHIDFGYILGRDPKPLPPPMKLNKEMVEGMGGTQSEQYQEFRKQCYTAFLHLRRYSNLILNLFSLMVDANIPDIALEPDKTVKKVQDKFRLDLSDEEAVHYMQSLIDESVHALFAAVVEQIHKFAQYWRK

On to `Cc1cc(-c2cc(-c3cc(S(=O)(=O)N[C@H]4CC[C@H](CO)CC4)ccc3C)cnc2N)ccn1` [Example 77, trans-3-(2-Amino-2′-methyl-[3,4′-bipyridin]-5-yl)-N-(−4-(hydroxymethyl)cyclohexyl)-4-methylbenzenesulfonamide hydrochloride], for which the half-inhibitory concentration (IC50) on PI 4-kinase beta is 2.1 µM; at Vps34, over 10 µM; at mTOR, over 10 µM.
Consider `Cc1noc(-c2cc(-c3cc(S(=O)(=O)NCCC(F)(F)F)ccc3C)cnc2N)n1` [Example 48, 3-(6-Amino-5-(3-methyl-1,2,4-oxadiazol-5-yl)pyridin-3-yl)-4-methyl-N-(3,3,3-trifluoropropyl)benzenesulfonamide], for which the IC50 is 6 µM at PI 4-kinase beta, over 10 µM on Vps34 and over 10 µM at mTOR.
For the molecule `Cc1ncc(-c2cc(-c3cc(S(=O)(=O)NCCC(C)(C)O)ccc3C)cnc2N)o1` [Example 13, 3-[6-Amino-5-(2-methyl-oxazol-5-yl)-pyridin-3-yl]-N-(3-hydroxy-3-methyl-butyl)-4-methyl-benzenesulfonamide, hydrochloride salt], the results for the IC50 at PI 4-kinase beta, on Vps34 and on mTOR were 4.4 µM, over 10 µM and 1.6 µM, respectively.
For `Cc1ccc(S(=O)(=O)N[C@H]2CC[C@H](O)CC2)cc1-c1cnc(N)c(-c2nc(C(F)F)no2)c1` [Example 70, 3-(6-Amino-5-(3-(difluoromethyl)-1,2,4-oxadiazol-5-yl)pyridin-3-yl)-N-((1r,4r)-4-hydroxycyclohexyl)-4-methylbenzenesulfonamide hydrochloride], in that order: 8.2 µM, over 10 µM and over 10 µM.
With `Cc1noc(-c2cc(-c3cc(S(=O)(=O)NCCC4(O)CCCC4)ccc3C)cnc2N)n1` [Example 37.11, 3-(6-Amino-5-(3-methyl-1,2,4-oxadiazol-5-yl)pyridin-3-yl)-N-(2-(1-hydroxycyclopentyl)ethyl)-4-methylbenzenesulfonamide], the IC50 was 8.1 µM on PI 4-kinase beta, over 10 µM at Vps34 and over 10 µM on mTOR.
With `Cc1noc(-c2cc(-c3cc(S(=O)(=O)NCC(C)(C)CO)ccc3C)cnc2N)n1` [Example 37.18, 3-(6-Amino-5-(3-methyl-1,2,4-oxadiazol-5-yl)pyridin-3-yl)-N-(3-hydroxy-2,2-dimethylpropyl)-4-methylbenzenesulfonamide hydrochloride], the IC50 at PI 4-kinase beta, on Vps34 and at mTOR was over 10 µM throughout.
For the molecule `Cc1ccc(S(=O)(=O)NCCC(C)(C)O)cc1-c1cnc(N)c(-c2cnn(C)n2)c1` [Example 106, 3-(6-amino-5-(2-methyl-2H-1,2,3-triazol-4-yl)pyridin-3-yl)-N-(3-hydroxy-3-methylbutyl)-4-methylbenzenesulfonamide], the IC50 at PI 4-kinase beta was 6.4 µM; at Vps34, over 10 µM; on mTOR, 7.6 µM.
In the case of `Cc1noc(-c2cc(-c3cc(S(=O)(=O)NOC(C)C)ccc3C)cnc2N)n1` [Example 45, 3-(6-Amino-5-(3-methyl-1,2,4-oxadiazol-5-yl)pyridin-3-yl)-N-isopropoxy-4-methylbenzenesulfonamide], the IC50 at PI 4-kinase beta was 7.4 µM; on Vps34 it was over 10 µM; on mTOR, 9.1 µM.
For `Cc1noc(-c2cc(-c3cc(S(=O)(=O)NCC4(CO)CCC4)ccc3C)cnc2N)n1` [Example 37.26, 3-(6-Amino-5-(3-methyl-1,2,4-oxadiazol-5-yl)pyridin-3-yl)-N-((1-(hydroxymethyl)cyclobutyl)methyl)-4-methylbenzenesulfonamide], in that order: over 10 µM, over 10 µM and over 10 µM.
With `Cc1noc(-c2cc(-c3cc(S(=O)(=O)N4CC(CO)C4)ccc3C)cnc2N)n1` [Example 37.39, (S)-((3-(6-Amino-5-(3-methyl-1,2,4-oxadiazol-5-yl)pyridin-3-yl)-4-methylphenyl)sulfonyl)azetidin-3-yl)methanol], the results for the IC50 at PI 4-kinase beta, at Vps34 and on mTOR were 4.8 µM, over 10 µM and over 10 µM, respectively.
In the case of `Cc1noc(-c2cc(-c3cc(S(=O)(=O)NCC4(CO)CCCC4)ccc3C)cnc2N)n1` [Example 37.13, 3-(6-Amino-5-(3-methyl-1,2,4-oxadiazol-5-yl)pyridin-3-yl)-N-((1-(hydroxymethyl)cyclopentyl)methyl)-4-methylbenzenesulfonamide], the IC50 on PI 4-kinase beta was 5 µM; on Vps34, over 10 µM; at mTOR, over 10 µM.
On to `Cc1noc(-c2cc(-c3cc(S(=O)(=O)NOCC(C)(C)O)ccc3C)cnc2N)n1` [Example 11, 3-[6-Amino-5-(3-methyl-[1,2,4]oxadiazol-5-yl)-pyridin-3-yl]-N-(2-hydroxy-2-methyl-propoxy)-4-methyl-benzenesulfonamide, hydrochloride salt], for which the results for the IC50 at PI 4-kinase beta, on Vps34 and at mTOR were 5.1 µM, over 10 µM and over 10 µM, respectively.
On to `Cc1ccc(S(=O)(=O)NCC(C)(C)O)cc1-c1cnc(N)c(-c2cnn(C)n2)c1` [Example 4.4, 3-(6-amino-5-(2-methyl-2H-1,2,3-triazol-4-yl)pyridin-3-yl)-N-(2-hydroxy-2-methylpropyl)-4-methylbenzenesulfonamide hydrochloride], for which the IC50 on PI 4-kinase beta was 8.2 µM; on Vps34, over 10 µM; on mTOR it was over 10 µM.
On to `Cc1cnc(-c2cc(-c3cc(S(=O)(=O)N[C@H]4CC[C@H](O)CC4)ccc3C)cnc2N)o1` [Example 5.2, trans 3-(6-Amino-5-(5-methyloxazol-2-yl)pyridin-3-yl)-N-(4-hydroxycyclohexyl)-4-methylbenzene sulfonamide hydrochloride], for which the results for the 50% inhibitory concentration (IC50) on PI 4-kinase beta, on Vps34 and on mTOR were 0.9 µM, over 10 µM and over 10 µM, respectively.
Take `Cc1ccc(S(=O)(=O)N[C@H]2CC[C@H](O)CC2)cc1-c1cnc(N)c(-c2cnn(CC(F)(F)F)c2)c1` [Example 4.2, trans 3-(6-Amino-5-(1-(2,2,2-trifluoroethyl)-1H-pyrazol-4-yl)pyridin-3-yl)-N-(4-hydroxycyclohexyl)-4-methyl-benzenesulfonamide]: the IC50 is 0.65 µM at PI 4-kinase beta, over 10 µM on Vps34 and 1.3 µM at mTOR.
For `Cc1ccc(S(=O)(=O)N[C@H]2CC[C@H](O)CC2)cc1-c1cnc(N)c(-c2cnn(C)n2)c1` [Example 4.5, trans 3-(6-Amino-5-(2-methyl-2H-1,2,3-triazol-4-yl)pyridin-3-yl)-N-(4-hydroxycyclohexyl)-4-methylbenzene sulfonamide hydrochloride], in that order: 5.25 µM, over 10 µM and over 10 µM.
For `Cc1noc(-c2cc(-c3cc(S(=O)(=O)NCCC(C)(C)O)ccc3C)cnc2N)n1` [Example 5, 3-[6-Amino-5-(3-methyl-[1,2,4]oxadiazol-5-yl)-pyridin-3-yl]-N-(3-hydroxy-3-methyl-butyl)-4-methyl-benzenesulfonamide hydrochloride], in that order: 4.9 µM, over 9.55 µM and 6.5 µM.
For `Cc1ccc(S(=O)(=O)NCC(C)(C)O)cc1-c1cnc(N)c(-c2nc(C3CC3)no2)c1` [Example 80, 3-(6-Amino-5-(3-cyclopropyl-1,2,4-oxadiazol-5-yl)pyridin-3-yl)-N-(2-hydroxy-2-methylpropyl)-4-methylbenzenesulfonamide hydrochloride], in that order: 3.55 µM, over 10 µM and over 10 µM.
For the molecule `Cc1cc(-c2cc(-c3cc(S(=O)(=O)NC[C@H]4CCOC4)ccc3C)cnc2N)on1` [Example 4.7, (R)-3-(6-Amino-5-(3-methylisoxazol-5-yl)pyridin-3-yl)-4-methyl-N-((tetra hydrofuran-3-yl)methyl)benzene-sulfonamide hydrochloride], the IC50 on PI 4-kinase beta was 1.7 µM; on Vps34 it was over 10 µM; on mTOR it was 7.7 µM.
Take `Cc1noc(-c2cc(-c3cc(S(=O)(=O)NOC(C)(C)C)ccc3C)cnc2N)n1` [Example 47, 3-(6-Amino-5-(3-methyl-1,2,4-oxadiazol-5-yl)pyridin-3-yl)-N-(tert-butoxy)-4-methylbenzenesulfonamide]: the values for the IC50 at PI 4-kinase beta, at Vps34 and at mTOR were 4.4 µM, over 10 µM and 4 µM, respectively.
With `Cc1noc(-c2cc(-c3cc(S(=O)(=O)NC4CCOCC4)ccc3C)cnc2N)n1` [Example 49, 3-(6-Amino-5-(3-methyl-1,2,4-oxadiazol-5-yl)pyridin-3-yl)-4-methyl-N-(tetrahydro-2H-pyran-4-yl)benzenesulfonamide], the half-inhibitory concentration (IC50) at PI 4-kinase beta was 6.8 µM; at Vps34 it was over 10 µM; on mTOR, 8.1 µM.
As to `Cc1cccc(NS(=O)(=O)c2ccc(C)c(-c3cnc(N)c(-c4cnn(CC(F)(F)F)c4)c3)c2)n1` [Example 1, 3-{6-Amino-5-[1-(2,2,2-trifluoro-ethyl)-1H-pyrazol-4-yl]-pyridin-3-yl}-4-methyl-N-(6-methyl-pyridin-2-yl)-benzenesulfonamide], the IC50 on PI 4-kinase beta is 1.95 µM; on Vps34 it was over 9.1 µM; at mTOR it was 2.37 µM.
On the same counts, the results for `Cc1noc(-c2cc(-c3cc(S(=O)(=O)N[C@H]4CC[C@H](CO)CC4)ccc3C)cnc2N)n1` [Example 19, trans 3-[6-Amino-5-(3-methyl-[1,2,4]oxadiazol-5-yl)-pyridin-3-yl]-N-(4-hydroxymethyl-cyclohexyl)-4-methyl-benzenesulfonamide hydrochloride] are 1.3 µM, over 10 µM and over 10 µM.
Turning to `CCc1cc(-c2cc(-c3cc(S(=O)(=O)NCC(C)(C)O)ccc3C)cnc2N)on1` [Example 4.6, 3-(6-Amino-5-(3-ethylisoxazol-5-yl)pyridin-3-yl)-N-(2-hydroxy-2-methylpropyl)-4-methyl-benzenesulfonamide hydrochloride], the IC50 was 2.7 µM on PI 4-kinase beta, over 10 µM at Vps34 and 1.4 µM on mTOR.

For orientation: IC50 means the concentration needed to halve the response being measured.
